Experimental data reported in PMC4490784, “Compensatory induction of MYC expression by sustained CDK9 inhibition via a BRD4-dependent mechanism” (eLife, 2015).

How the values were obtained:
Assay in all cases: biochemical binding or enzymatic assay
[1] = target: T1, PCTK3 (Homo sapiens, UniProt Q07002); conditions: Ambit
T1 construct: purchased DiscoveRx KINOMEscan
Description: (§1) Finally, the selectivity profile of i-CDK9 toward other non-CDK kinases was also assessed using the KINOMEscan platform. […] Except for CLK4, for which no suitable assay was available, the rest of the kinases plus a selected group of others were re-examined for the concentration-dependent effect of i-CDK9 in either functional kinase assays or binding assays. […] Indeed, it has recently been reported that DYRK1A acts as a Pol II CTD Kinase at its target gene promoters ([Di Vona et al., 2015]).

[2] = target: S6K1 (Homo sapiens, UniProt P23443); conditions: Novartis
Description: as §1

[3] = target: T2, PDGFRA (Homo sapiens, UniProt P16234); conditions: Novartis
T2 construct: purchased DiscoveRx KINOMEscan
Description: as §1

[4] = target: T3, PKN2 (Homo sapiens, UniProt Q16513); conditions: Novartis
T3 construct: purchased DiscoveRx KINOMEscan
Description: as §1

[5] = target: T4, AKT1 (Homo sapiens, UniProt P31749); conditions: Novartis
T4 construct: purchased DiscoveRx KINOMEscan
Description: as §1

[6] = target: T5, LYN (Homo sapiens, UniProt P07948); conditions: Novartis
T5 construct: purchased DiscoveRx KINOMEscan
Description: as §1

[7] = target: T6, PCTK2 (Homo sapiens, UniProt Q00537); conditions: Ambit
T6 construct: purchased DiscoveRx KINOMEscan
Description: as §1

[8] = target: T7, FGFR2 (Homo sapiens, UniProt P21802); conditions: Novartis
T7 construct: purchased DiscoveRx KINOMEscan
Description: as §1

[9] = target: T8, SRC (Homo sapiens, UniProt P12931); conditions: Novartis
T8 construct: purchased DiscoveRx KINOMEscan
Description: as §1

[10] = target: T9, EGFR (Homo sapiens, UniProt P00533); conditions: Novartis
T9 construct: purchased DiscoveRx KINOMEscan
Description: as §1

[11] = target: T10, YES (Homo sapiens, UniProt P07947); conditions: Novartis
T10 construct: purchased DiscoveRx KINOMEscan
Description: as §1

[12] = target: T11, PLK1 (Homo sapiens, UniProt P53350); conditions: Novartis
T11 construct: purchased DiscoveRx KINOMEscan
Description: as §1

[13] = target: T12, ROCK2 (Homo sapiens, UniProt O75116); conditions: Novartis
T12 construct: purchased DiscoveRx KINOMEscan
Description: as §1

[14] = target: T13, TAOK3 (Homo sapiens, UniProt Q9H2K8); conditions: Millipore
T13 construct: purchased DiscoveRx KINOMEscan
T13 sequence (Q9H2K8 1-898): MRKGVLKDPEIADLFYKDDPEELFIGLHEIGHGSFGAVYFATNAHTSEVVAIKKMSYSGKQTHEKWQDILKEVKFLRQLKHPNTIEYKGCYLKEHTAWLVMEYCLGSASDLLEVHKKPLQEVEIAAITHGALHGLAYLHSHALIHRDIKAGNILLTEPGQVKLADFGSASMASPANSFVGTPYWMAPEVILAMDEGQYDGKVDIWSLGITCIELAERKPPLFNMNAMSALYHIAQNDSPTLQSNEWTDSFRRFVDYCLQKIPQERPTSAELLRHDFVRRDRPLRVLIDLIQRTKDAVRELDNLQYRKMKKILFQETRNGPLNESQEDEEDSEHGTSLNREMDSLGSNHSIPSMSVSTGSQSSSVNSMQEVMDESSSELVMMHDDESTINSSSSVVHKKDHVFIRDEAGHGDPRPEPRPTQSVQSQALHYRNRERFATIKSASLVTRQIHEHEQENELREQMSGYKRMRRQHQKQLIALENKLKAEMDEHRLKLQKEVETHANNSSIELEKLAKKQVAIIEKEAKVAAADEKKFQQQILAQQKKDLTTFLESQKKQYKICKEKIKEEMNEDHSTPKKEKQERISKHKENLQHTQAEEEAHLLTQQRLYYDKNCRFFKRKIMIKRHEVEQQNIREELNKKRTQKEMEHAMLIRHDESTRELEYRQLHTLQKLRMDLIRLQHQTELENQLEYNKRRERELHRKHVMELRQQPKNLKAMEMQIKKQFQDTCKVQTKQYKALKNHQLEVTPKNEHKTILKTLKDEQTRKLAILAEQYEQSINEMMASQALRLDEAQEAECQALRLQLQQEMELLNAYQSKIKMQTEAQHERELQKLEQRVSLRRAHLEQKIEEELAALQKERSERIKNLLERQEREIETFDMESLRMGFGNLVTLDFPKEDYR
Description: as §1

[15] = target: T14, LCK (Homo sapiens, UniProt P06239); conditions: Novartis
T14 construct: purchased DiscoveRx KINOMEscan
Description: as §1

[16] = target: T15, AXL (Homo sapiens, UniProt P30530); conditions: Novartis
T15 construct: purchased DiscoveRx KINOMEscan
Description: as §1

[17] = target: T16, AURKA (Homo sapiens, UniProt O14965); conditions: Novartis
T16 construct: purchased DiscoveRx KINOMEscan
T16 sequence (O14965 1-403): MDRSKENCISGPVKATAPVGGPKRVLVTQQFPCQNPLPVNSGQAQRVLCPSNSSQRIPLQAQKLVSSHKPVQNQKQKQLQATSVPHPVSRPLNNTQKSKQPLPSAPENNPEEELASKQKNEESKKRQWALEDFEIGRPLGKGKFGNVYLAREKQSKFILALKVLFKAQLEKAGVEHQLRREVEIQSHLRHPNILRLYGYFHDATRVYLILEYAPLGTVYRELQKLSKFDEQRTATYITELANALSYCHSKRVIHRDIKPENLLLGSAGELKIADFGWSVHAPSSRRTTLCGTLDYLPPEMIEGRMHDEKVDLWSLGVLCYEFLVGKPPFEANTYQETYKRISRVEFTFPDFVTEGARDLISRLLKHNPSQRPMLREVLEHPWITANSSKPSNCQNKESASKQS
Description: as §1

T2 sequence (P16234 24-1089): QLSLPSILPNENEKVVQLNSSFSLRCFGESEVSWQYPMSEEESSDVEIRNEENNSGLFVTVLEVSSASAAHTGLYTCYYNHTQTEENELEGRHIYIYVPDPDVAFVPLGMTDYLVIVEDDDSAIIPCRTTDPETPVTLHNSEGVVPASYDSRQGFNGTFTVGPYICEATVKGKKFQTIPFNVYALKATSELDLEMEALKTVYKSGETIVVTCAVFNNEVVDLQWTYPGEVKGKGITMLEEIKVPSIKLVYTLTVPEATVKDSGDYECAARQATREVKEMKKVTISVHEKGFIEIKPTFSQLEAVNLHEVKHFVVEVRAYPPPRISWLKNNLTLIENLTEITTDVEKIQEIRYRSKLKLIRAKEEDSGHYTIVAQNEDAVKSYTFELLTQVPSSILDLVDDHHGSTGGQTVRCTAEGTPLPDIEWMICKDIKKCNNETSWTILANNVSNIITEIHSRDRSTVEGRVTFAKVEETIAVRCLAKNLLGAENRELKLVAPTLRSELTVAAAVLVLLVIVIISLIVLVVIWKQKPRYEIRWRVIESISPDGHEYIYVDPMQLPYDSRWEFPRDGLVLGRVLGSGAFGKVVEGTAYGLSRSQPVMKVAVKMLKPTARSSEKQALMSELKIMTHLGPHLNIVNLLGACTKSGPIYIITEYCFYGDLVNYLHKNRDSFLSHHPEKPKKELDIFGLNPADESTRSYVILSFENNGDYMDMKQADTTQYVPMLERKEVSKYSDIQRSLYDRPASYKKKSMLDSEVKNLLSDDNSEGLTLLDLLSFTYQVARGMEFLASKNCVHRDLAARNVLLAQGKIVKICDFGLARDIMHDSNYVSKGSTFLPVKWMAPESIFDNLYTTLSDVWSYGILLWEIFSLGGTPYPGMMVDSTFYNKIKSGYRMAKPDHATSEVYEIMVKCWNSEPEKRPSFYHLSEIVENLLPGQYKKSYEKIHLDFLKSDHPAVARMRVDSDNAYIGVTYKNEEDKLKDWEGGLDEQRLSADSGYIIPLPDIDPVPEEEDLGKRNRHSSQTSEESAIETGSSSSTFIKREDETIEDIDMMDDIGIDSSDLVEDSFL
T8 sequence (P12931 whole entry): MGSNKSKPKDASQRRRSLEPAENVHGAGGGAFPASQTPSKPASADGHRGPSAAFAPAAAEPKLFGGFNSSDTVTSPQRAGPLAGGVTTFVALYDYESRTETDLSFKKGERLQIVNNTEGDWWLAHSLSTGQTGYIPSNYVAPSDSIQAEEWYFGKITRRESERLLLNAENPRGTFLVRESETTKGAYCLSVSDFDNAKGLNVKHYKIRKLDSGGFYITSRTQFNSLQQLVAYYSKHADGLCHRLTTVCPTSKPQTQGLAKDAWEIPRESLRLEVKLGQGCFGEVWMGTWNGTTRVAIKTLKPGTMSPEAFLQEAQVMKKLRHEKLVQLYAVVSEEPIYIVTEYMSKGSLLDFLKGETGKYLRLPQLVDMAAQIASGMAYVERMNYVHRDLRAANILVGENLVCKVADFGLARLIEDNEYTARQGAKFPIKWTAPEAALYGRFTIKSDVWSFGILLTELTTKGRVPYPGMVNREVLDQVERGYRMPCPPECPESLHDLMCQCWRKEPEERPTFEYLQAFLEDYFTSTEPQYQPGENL
T11 sequence (P53350 whole entry): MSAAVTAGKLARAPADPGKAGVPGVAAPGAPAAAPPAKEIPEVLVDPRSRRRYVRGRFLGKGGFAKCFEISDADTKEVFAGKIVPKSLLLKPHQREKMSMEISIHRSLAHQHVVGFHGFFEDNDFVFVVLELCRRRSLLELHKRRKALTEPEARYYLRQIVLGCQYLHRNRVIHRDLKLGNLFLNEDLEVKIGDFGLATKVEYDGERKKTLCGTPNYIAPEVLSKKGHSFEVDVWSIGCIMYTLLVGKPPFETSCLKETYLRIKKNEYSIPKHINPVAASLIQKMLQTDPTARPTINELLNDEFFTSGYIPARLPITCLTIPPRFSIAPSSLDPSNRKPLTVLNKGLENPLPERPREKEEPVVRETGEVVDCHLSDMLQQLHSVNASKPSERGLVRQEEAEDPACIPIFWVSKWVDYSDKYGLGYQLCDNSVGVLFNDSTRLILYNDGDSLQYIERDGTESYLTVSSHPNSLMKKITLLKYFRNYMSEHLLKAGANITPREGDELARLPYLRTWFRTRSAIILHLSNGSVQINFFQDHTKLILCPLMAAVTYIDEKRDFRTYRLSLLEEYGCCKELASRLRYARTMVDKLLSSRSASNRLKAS
T14 sequence (P06239 whole entry): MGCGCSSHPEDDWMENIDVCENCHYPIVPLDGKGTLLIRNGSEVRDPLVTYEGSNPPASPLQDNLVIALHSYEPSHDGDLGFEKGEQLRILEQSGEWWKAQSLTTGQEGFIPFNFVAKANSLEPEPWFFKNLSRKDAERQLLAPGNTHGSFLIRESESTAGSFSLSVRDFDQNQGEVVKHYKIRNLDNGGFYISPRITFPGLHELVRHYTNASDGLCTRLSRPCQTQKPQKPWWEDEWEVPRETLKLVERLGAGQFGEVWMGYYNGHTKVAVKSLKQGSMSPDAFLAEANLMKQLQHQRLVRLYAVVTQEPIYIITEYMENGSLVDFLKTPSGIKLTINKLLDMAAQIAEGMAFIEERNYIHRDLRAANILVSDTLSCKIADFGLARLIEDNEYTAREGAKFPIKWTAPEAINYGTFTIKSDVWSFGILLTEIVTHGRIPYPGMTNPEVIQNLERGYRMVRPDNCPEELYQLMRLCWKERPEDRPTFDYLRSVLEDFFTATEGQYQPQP
T15 sequence (P30530 26-894): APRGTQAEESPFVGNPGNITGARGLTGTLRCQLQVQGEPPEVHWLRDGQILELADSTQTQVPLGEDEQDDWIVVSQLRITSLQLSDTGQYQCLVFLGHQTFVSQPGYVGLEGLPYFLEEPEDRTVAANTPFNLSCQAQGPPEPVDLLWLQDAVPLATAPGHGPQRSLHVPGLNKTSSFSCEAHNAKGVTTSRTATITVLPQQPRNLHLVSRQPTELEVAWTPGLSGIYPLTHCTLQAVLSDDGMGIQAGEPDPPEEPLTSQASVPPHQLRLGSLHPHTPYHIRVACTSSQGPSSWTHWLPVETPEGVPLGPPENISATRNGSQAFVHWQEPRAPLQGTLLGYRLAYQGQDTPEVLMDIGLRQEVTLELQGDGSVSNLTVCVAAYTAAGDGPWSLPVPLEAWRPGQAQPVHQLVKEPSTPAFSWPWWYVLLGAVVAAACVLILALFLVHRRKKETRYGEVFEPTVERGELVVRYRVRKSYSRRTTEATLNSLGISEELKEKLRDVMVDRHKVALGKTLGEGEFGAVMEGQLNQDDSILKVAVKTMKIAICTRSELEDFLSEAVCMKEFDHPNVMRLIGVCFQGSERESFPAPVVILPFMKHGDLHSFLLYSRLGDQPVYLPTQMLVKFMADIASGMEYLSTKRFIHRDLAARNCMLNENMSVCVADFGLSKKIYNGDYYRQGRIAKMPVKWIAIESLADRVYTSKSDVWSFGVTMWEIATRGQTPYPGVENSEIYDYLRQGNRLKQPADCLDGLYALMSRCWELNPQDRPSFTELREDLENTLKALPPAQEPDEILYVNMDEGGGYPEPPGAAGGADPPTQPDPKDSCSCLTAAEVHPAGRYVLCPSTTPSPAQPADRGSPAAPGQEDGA
T4 sequence (P31749 whole entry): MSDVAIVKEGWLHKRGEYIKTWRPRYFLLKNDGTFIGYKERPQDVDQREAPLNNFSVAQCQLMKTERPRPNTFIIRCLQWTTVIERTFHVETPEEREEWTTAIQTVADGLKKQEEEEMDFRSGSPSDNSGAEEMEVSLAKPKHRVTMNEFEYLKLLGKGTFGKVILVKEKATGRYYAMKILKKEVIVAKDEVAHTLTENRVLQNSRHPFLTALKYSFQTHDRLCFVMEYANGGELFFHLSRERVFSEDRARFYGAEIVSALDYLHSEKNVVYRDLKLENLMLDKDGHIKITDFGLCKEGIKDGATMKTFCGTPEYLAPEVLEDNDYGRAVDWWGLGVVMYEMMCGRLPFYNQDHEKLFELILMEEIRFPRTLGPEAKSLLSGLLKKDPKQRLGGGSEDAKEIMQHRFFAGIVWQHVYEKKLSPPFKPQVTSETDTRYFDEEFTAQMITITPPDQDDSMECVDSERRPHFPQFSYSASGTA
S6K1, sequence (P23443 whole entry): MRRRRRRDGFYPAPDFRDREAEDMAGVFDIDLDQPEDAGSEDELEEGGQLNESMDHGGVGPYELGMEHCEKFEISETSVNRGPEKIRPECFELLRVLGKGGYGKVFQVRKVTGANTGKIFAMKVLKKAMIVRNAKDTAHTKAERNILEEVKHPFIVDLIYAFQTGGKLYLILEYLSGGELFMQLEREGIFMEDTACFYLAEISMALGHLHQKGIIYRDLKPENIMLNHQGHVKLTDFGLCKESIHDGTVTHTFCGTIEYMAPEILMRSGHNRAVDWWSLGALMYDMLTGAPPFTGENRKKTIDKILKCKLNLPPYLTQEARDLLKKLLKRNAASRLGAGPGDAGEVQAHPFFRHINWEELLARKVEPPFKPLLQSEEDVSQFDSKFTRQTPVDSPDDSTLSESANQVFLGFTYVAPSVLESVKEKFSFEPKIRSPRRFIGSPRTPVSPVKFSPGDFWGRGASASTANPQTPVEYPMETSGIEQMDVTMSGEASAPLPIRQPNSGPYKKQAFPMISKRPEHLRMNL

N[C@H]1CC[C@H](Nc2cc(-c3cccc(NCc4cccc(F)c4)n3)c(Cl)cn2)CC1 [i-CDK9, N2′-(trans-4-aminocyclohexyl)-5′-chloro-N6-(3-fluorobenzyl)-2,4′-bipyridine-2′,6-diamine]
IC50 [1]: > 0.45 µM | IC50 [2]: > 10 µM | IC50 [3]: > 10 µM | IC50 [4]: > 10 µM | IC50 [5]: > 10 µM | IC50 [6]: > 10 µM | IC50 [7]: > 0.079 µM | IC50 [8]: > 10 µM | IC50 [9]: > 10 µM | IC50 [10]: > 10 µM | IC50 [11]: > 10 µM | IC50 [12]: > 10 µM | IC50 [13]: > 10 µM | IC50 [14]: 1.08 µM | IC50 [15]: > 10 µM | IC50 [16]: > 10 µM | IC50 [17]: > 10 µM
